In ChEMBL document CHEMBL1933025, “Discovery and optimization of thieno[2,3-d]pyrimidines as B-Raf inhibitors” (Bioorg Med Chem Lett, 2012):

Test: Oral bioavailability in CD IGS rat at 10 mg/kg measured after 26 hrs
Format: ADME, organism-based
Settings: in vivo

Structure (SMILES) | bioavailability
NC(=O)c1sc2ncnc(-c3cccc(NC(=O)Nc4ccc(C(F)(F)F)cc4)c3)c2c1N | 0.3%
COc1cncc(-c2nc(NC(C)(C)CO)nc3sc(C(N)=O)c(N)c23)c1 | 17%
